Test results as given in patent US11413278B2, “Compounds and methods for promoting stress resistance” (priority 2015, dated 2022).
Entries after “also recorded” stand apart in the source; their conditions may differ. Where two headings read alike, the source gives them in different places.

Tests used:
Type in all cases: cell-based, human
[1] = system: mTOR; experiment: mTOR inhibition (RPS6 phosphorylation status), In-Cell Western
Experimental: In-Cell Western assays were performed, following a standard immuno-staining protocol. Briefly, WI-38 cells were treated with small molecules for 24 hrs, and then processed and incubated with primary antibody cocktail (Cell Signaling, mouse anti-RPS, 1:25; rabbit-anti-pRPS6-(Ser-235/236), 1:100) overnight at 4° C. Next day, samples were processed and incubated with fluorophore-conjugated secondary antibodies (Cell Signaling, DyLight 680-goat anti-mouse, 1:500; DyLight 800-goat anti-rabbit, 1:1,000). Images were collected on an Odyssey Imager (LI-COR) and analyzed with the Image Studio Lite software (version 5.0.21).
Mammalian target of rapamycin (mTOR) is a crucial regulator of cell growth and metabolism and has been implicated in aging and many diseases, including cancer, diabetes and neurological diseases (Dazert and Hall, 2011; Zoncu et al., 2011). […] In addition, the anti-diabetes drug metformin (Kalender et al., 2010), as well as other AMPK activators such as 2-deoxy-D-glucose (Inoki et al., 2003) and AICAR (Shaw et al., 2004), could inhibit mTORC1. Applicants examined the effects of our molecules (at three doses, 5 μM, 10 μM and 20 μM) on the phosphorylation status of ribosomal protein S6 (RPS6), a readout of mTOR activity, to ask whether they could inhibit mTOR.
In-Cell Western assays were performed, following the same procedures to analyze DNA-damage markers. WI-38 cells were incubated with small molecules for 24 hrs, and then processed and incubated with primary antibody cocktail (mouse anti-RPS, 1:25; rabbit-anti-pRPS6, 1:100) overnight at 4° C. Next day, samples were processed and incubated with fluorophore-conjugated secondary antibodies (goat anti-mouse, 1:500; goat anti-rabbit, 1:1,000) in antibody dilution buffer. Images were collected on an Odyssey Imager (LI-COR) and analyzed with the Image Studio Lite software.

[2] = system: LC3A/B puncta; experiment: Autophagy induction analysis (LC3A/B puncta immuno-staining); details: for Assay 15: Potential autophagy induction by LC3A/B puncta assays: 10 uM & 20 uM, YES/NO; for Exp. 2, normalized change of nuclei numbers (Less cells): 20X objective, lysosomal LAMP co-staining
Experimental: Immuno-staining of LC3A/B was performed, following a standard protocol. Briefly, WI-38 cells were treated with small molecules for 24 hrs, and then processed and incubated with primary antibody (Cell Signaling, rabbit anti-LC3A/B, 1:100) overnight at 4° C. Next day, samples were processed and incubated with fluorophore-conjugated secondary antibody and further incubated with DAPI dye. Images were collected on the INCell Analyzer 2000 (Experiment 1: 10× objective; Experiment 2: 20× objective) and analyzed with the Developer Toolbox. For Experiment 2, lysosomal-associated membrane protein 2 (LAMP2) was also counter-stained to identify the LC3A/B puncta that colocalize with lysosome and the data were analyzed by the MetaXpress software (Molecular Devices, version 5.1). The intensity of total (Exp. 1) or LAMP2-colocalized LC3A/B puncta (Exp. 2) was normalized the total numbers nuclei in the fields.
These assays were performed, following the same procedures to analyze DNA-damage markers. WI-38 cells were incubated with small molecules for 24 hrs, and then processed and incubated with primary antibody (rabbit anti-LC3A/B, 1:100) overnight at 4 C. The next day, samples were processed and incubated with fluorophore-conjugated secondary antibody and further incubated with DAPI dye. Images were collected on an INCell Analyzer 2000 and analyzed with the Developer software. Total LC3A/B puncta intensity was normalized the total numbers of DAPI-positive nuclei.

[3] = system: FOXO3; experiment: qPCR analysis of FOXO3-regulated genes; details: for K = Sestrin induction: score; for fold induction at 10 µM: Homo sapiens; for Induction of at least two of five FOXO3-regulated genes (SOD2, GADD45A, CAT, DDB1, TXNIP): WI-38
Method in brief: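 WI-38 cells treated with compound at 10 μM for 24 h, followed by Cells-to-Ct RT-qPCR of FOXO3 target genes normalised to B2M, PPIA and GAPDH. FOXO3 or NRF2 dependence tested by prior 10 nM siRNA knockdown (36 h transfection, compound added ~24 h after replating).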

[4] = Exp. 1, 10 μM, 10X objective, WI-38 cells
[5] = 10 μM, 24 hrs, WI-38 cells, qPCR, normalized to B2M, n = 4
[6] = 24 h, Assay 10(m), at 10 uM, qPCR, read-out: Induction of FOXO3-regulated genes: CAT normalized fold-change
[7] = 24 h, Assay 10(m), at 10 uM, qPCR, read-out: Induction of FOXO3-regulated genes: GADD45A normalized fold-change
[8] = 24 h, Assay 10(m), at 10 uM, qPCR, read-out: Induction of FOXO3-regulated genes: SOD2 normalized fold-change
[9] = 10 μM, 24 hrs, WI-38 cells, qPCR, normalized to B2M, n = 4, read-out: CAT expression, normalized fold change (FOXO3-regulated gene)
[10] = 10 μM, 24 hrs, WI-38 cells, qPCR, normalized to B2M, n = 4, read-out: GADD45A expression, normalized fold change (FOXO3-regulated gene)
[11] = WI-38 cells, 10 μM, 24 hrs, n=4, qPCR normalized by B2M, read-out: DDB1 Normalized fold change
[12] = WI-38 cells, 10 μM, 24 hrs, n=4, qPCR normalized by B2M, read-out: GADD45A Normalized fold change
[13] = WI-38 cells, 10 μM, 24 hrs, n=4, qPCR normalized by B2M, read-out: SESN1 Normalized fold change
[14] = fold change, qPCR, WI-38 cells, 10 μM, 24 hrs, read-out: Summary of effects on FOXO3-regulated genes: CAT
[15] = fold change, qPCR, WI-38 cells, 10 μM, 24 hrs, read-out: Summary of effects on FOXO3-regulated genes: GADD45A
[16] = qPCR, WI-38 cells, 10 μM, n=4, 24 hrs, normalized by B2M, read-out: CAT Normalized fold change
[17] = qPCR, WI-38 cells, 10 μM, n=4, 24 hrs, normalized by B2M, read-out: SOD2 Normalized fold change
[18] = qPCR, WI-38 cells, 10 μM, n=4, 24 hrs, normalized by B2M, read-out: TXNIP Normalized fold change
[19] = fold change, qPCR, WI-38 cells, 10 μM, 24 hrs
[20] = 24 h, Assay 10(m), at 10 uM, qPCR, read-out: Induction of FOXO3-regulated genes: TXNIP normalized fold-change
[21] = 10 μM, 24 hrs, WI-38 cells, qPCR, normalized to B2M, n = 4, read-out: SESN1 expression, normalized fold change (FOXO3-regulated gene)
[22] = 10 μM, 24 hrs, WI-38 cells, qPCR, normalized to B2M, n = 4, read-out: TXNIP expression, normalized fold change (FOXO3-regulated gene)
[23] = fold change, qPCR, WI-38 cells, 10 μM, 24 hrs, read-out: Summary of effects on FOXO3-regulated genes: SESN1
[24] = fold change, qPCR, WI-38 cells, 10 μM, 24 hrs, read-out: Summary of effects on FOXO3-regulated genes: TXNIP

Compound	G = mTOR down-regulation ([1]; 2-point score)	G = mTOR down-regulation ([1]; summary score)	H = Potential Autophagy Induction ([2]; score)	H = Potential Autophagy Induction ([2]; summary score)	E = Potential FOXO3 Activation ([3]; 2-point score)	K = Sestrin induction [3]	E = Potential FOXO3 Activation ([3]; summary score)	fold induction at 10 µM [3, 6]	fold induction at 10 µM [3, 7]	fold induction at 10 µM [3, 9]	fold induction at 10 µM [3, 10]	fold induction at 10 µM [3, 11]	fold induction at 10 µM [3, 12]	fold induction at 10 µM [3, 13]	fold induction at 10 µM [3, 14]	fold induction at 10 µM [3, 15]	fold induction at 10 µM [3, 16]	fold induction at 10 µM [3, 17]	fold induction at 10 µM [3, 18]	Induction of at least two of five FOXO3-regulated genes (SOD2, GADD45A, CAT, DDB1, TXNIP) ([3]; 10 μM, 24 hrs)	other results
Oc1ccccc1-c1noc(-c2ccccc2O)n1 [O27]	2	2	0	0	0	1	0	–	–	–	–	–	–	–	–	–	–	–	–	–	mTOR inhibition (p-RPS6/RPS6), qualitative [1]: consistently reduced the ratios; mTOR down-regulation by p-RPS6 assays ([1]; Assay 14(q), at 5 uM, 10 uM & 20 uM): YES
O=C(Nc1ccc(Cl)c(Cl)c1)c1ccc([N+](=O)[O-])o1 [Gr-1G]	0	0	1	1	0	0	0	1.35	0.6	1.35	0.6	1.14	0.597	1.38	1.35	0.6	1.35	0.756	1.03	–	Assay 15: Potential autophagy induction by LC3A/B puncta assays [2]: YES; Exp. 1, induction of LC3A/B puncta (Up), total intensity normalized by total number of nuclei in the fields [2, 4]: p < 0.001; Up, 2006%,; Exp. 1, normalized change of nuclei numbers (Less cells) [2, 4]: Less cells, 41%,; Exp. 2, normalized change of nuclei numbers (Less cells) ([2]; Exp. 2, 10 μM, WI-38 cells): Less cells, 47%,; Exp. 2, normalized change of nuclei numbers (Less cells) ([2]; Exp. 2, 20 μM, WI-38 cells): Less cells, 67%,; SOD2 expression, normalized fold change (FOXO3-regulated gene) [3, 5]: SOD2 0.76, fold; fold induction at 10 µM [3, 8]: 0.76; Summary of effects on FOXO3-regulated genes: SOD2 [3, 19]: SOD2 0.76,
O=C(Nc1cc(C(F)(F)F)ccc1Cl)c1ccc([N+](=O)[O-])o1 [Gr-1B]	0	0	0	0	0	0	0	1.4	–	1.4	–	1.18	0.947	1.3	1.4	–	1.4	1.21	1.94	significant induction; also recorded: significant, induction	Exp. 1, induction of LC3A/B puncta (Up), total intensity normalized by total number of nuclei in the fields [2, 4]: No induction; fold induction at 10 µM [3, 20]: 1.52; fold induction at 10 µM [3, 21]: 1.3; fold induction at 10 µM [3, 22]: 1.94; fold induction at 10 µM [3, 23]: 1.3; fold induction at 10 µM [3, 24]: 1.94
CCCN1C/C(=C\c2ccc(F)cc2)C(=O)/C(=C/c2ccc(F)cc2)C1 [O15]	0	0	0	0	0	0	0	1.28	2.72	1.28	2.72	1.17	2.71	0.679	1.28	2.72	1.28	1.05	0.219	significant induction; also recorded: significant, induction	fold induction at 10 µM ([3]; 24 h, Assay 10(m), at 10 uM, qPCR, read-out: Induction of FOXO3-regulated genes: SESN1 normalized fold-change): 0.8; fold induction at 10 µM [3, 20]: 0.22; fold induction at 10 µM [3, 21]: 0.8; fold induction at 10 µM [3, 22]: 0.22; fold induction at 10 µM [3, 23]: 0.8; fold induction at 10 µM [3, 24]: 0.22
COc1ccc(C(=O)/C=C/c2ccccc2Br)c(OC)c1 [Gr-4B]	0	0	0	0	0	0	0	–	–	–	–	1.06	0.61	0.992	–	–	1.18	1.04	0.792	–	–
COc1cccc(/C=C2\CN(C)C/C(=C\c3cccc(OC)c3OC)C2=O)c1OC [O23]	0	0	1	1	2	0	2	–	7.22	–	7.22	1.26	7.22	0.799	–	7.22	0.89	2.04	0.071	induce FOXO3-regulated genes	Assay 15: Potential autophagy induction by LC3A/B puncta assays [2]: YES; SOD2 expression, normalized fold change (FOXO3-regulated gene) [3, 5]: SOD2 2.04 fold; Potential FOXO3 Activation (>=2 target genes induced, by >=1.5-fold) ([3]; Assay 11(n)): YES; fold induction at 10 µM [3, 8]: 2.04; fold induction at 10 µM [3, 20]: 0.07; fold induction at 10 µM [3, 22]: 0.07; fold induction at 10 µM [3, 24]: 0.07; Summary of effects on FOXO3-regulated genes: SOD2 [3, 19]: SOD2 2.04
